Results taken from ChEMBL document CHEMBL5465560, “Selectivity Literature for EUbOPEN Chemogenomic Library” (2024).

How the values were obtained:
[1] = biological target: Serine/threonine-protein kinase PLK1 (Homo sapiens, UniProt P53350); assay: Selectivity interaction (KinomeScan (DiscoverX)) EUB0001049a PLK1; conditions: at 1 µM
[2] = biological target: T1, Serine/threonine-protein kinase Sgk3 (Homo sapiens) (UniProt Q96BR1); assay: Selectivity interaction (KinomeScan (DiscoverX)) EUB0001079a SGK3; conditions: at 1 µM
T1 sequence (whole entry): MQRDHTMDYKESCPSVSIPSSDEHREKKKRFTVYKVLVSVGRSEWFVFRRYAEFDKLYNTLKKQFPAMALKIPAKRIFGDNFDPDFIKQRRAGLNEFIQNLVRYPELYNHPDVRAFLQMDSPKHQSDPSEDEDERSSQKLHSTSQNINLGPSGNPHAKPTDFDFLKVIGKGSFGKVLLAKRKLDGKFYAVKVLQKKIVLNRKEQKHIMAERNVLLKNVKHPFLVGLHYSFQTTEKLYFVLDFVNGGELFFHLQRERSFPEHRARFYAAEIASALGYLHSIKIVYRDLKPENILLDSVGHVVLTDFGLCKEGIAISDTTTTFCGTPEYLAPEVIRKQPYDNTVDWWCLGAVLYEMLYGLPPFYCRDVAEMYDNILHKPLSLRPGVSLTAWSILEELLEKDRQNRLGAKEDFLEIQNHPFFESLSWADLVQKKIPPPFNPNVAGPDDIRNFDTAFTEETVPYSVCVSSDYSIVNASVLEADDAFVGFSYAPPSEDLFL

[3] = Selectivity interaction (KinomeScan (DiscoverX)) EUB0001079a PKNB; conditions: at 1 µM
[4] = biological target: Platelet-derived growth factor receptor beta (Homo sapiens, UniProt P09619); assay: Selectivity interaction (KinomeScan (DiscoverX)) EUB0001079a PDGFRB; conditions: at 1 µM
[5] = biological target: T2, Phosphatidylinositol 4,5-bisphosphate 3-kinase catalytic subunit delta isoform (Homo sapiens) (UniProt O00329); assay: Selectivity interaction (ActivX KiNativ screen (kinase selectivity in THP-1 cell lysates)) EUB0000639a PIK3CD; assay type: subcellular; conditions: lysate, at 0.01 µM
T2 sequence (whole entry): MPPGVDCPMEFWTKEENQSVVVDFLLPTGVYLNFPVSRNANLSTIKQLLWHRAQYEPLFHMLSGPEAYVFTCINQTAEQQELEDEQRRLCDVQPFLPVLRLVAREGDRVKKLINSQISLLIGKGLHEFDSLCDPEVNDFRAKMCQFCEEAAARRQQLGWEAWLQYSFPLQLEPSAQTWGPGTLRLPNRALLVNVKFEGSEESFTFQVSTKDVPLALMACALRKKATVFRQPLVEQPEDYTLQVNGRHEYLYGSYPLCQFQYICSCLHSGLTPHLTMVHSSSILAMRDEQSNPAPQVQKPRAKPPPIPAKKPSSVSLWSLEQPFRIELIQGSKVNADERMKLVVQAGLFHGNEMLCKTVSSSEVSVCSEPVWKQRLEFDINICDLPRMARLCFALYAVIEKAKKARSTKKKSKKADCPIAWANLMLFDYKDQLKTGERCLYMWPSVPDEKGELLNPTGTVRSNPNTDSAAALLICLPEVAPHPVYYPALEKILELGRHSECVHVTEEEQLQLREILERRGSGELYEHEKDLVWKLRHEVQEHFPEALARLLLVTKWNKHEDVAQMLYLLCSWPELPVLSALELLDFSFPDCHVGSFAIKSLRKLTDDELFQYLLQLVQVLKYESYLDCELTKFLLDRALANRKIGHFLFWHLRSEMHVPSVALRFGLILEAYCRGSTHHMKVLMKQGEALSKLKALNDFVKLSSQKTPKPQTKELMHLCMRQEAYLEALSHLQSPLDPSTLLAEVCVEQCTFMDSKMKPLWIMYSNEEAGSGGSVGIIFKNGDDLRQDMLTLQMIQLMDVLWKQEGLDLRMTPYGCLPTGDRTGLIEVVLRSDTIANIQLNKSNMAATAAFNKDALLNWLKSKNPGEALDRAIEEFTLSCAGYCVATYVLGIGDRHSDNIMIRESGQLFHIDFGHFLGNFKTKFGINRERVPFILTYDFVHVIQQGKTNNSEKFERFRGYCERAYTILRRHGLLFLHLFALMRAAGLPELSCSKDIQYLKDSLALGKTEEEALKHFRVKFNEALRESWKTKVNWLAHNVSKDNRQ

[6] = biological target: Platelet-derived growth factor receptor alpha (Homo sapiens, UniProt P16234); assay: Selectivity interaction (KinomeScan (DiscoverX)) EUB0000092b PDGFRA; conditions: at 10 µM
[7] = biological target: Casein kinase I isoform epsilon (Homo sapiens, UniProt P49674); assay: Selectivity interaction (Ambit KINOMEscan and KiNATiv profiling in Jurkat cells) EUB0000090b CSNK1E; assay type: cell-based; conditions: at 1 µM
[8] = biological target: Cyclin-dependent kinase 18 (Homo sapiens) (UniProt Q07002); assay: Selectivity interaction (KinomeScan (DiscoverX)) EUB0000607a CDK18; conditions: at 10 µM
[9] = biological target: T3, Ephrin type-A receptor 8 (Homo sapiens) (UniProt P29322); assay: Selectivity interaction (ProQinase) EUB0000171b EPHA8
T3 sequence (whole entry): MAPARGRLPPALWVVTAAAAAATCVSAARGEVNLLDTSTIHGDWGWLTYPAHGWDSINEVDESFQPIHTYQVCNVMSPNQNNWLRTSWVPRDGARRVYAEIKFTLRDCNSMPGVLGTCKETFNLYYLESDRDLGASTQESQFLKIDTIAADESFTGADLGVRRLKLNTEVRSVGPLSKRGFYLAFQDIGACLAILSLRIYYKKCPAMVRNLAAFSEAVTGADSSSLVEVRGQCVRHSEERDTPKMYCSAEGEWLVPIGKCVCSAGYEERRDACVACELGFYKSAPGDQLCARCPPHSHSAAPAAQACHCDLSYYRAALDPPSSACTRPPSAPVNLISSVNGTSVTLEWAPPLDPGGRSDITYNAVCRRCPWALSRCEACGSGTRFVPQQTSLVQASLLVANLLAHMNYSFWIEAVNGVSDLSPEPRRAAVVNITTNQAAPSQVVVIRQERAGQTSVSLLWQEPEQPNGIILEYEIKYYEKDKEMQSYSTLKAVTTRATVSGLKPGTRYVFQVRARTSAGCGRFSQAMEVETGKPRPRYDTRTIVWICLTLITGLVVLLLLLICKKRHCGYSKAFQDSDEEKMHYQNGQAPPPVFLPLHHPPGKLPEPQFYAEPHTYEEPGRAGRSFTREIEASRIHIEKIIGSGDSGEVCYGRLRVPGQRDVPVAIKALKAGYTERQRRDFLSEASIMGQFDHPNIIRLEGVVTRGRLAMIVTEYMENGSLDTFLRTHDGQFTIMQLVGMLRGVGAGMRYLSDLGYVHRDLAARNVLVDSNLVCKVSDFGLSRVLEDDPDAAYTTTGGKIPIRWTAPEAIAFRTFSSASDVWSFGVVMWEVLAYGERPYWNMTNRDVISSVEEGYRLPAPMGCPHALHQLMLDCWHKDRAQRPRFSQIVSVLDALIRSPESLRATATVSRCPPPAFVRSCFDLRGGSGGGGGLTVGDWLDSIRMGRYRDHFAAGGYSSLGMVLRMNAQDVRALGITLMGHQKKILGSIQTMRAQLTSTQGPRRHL

Platelet-derived growth factor receptor alpha, sequence (P16234 whole entry, canonical isoform): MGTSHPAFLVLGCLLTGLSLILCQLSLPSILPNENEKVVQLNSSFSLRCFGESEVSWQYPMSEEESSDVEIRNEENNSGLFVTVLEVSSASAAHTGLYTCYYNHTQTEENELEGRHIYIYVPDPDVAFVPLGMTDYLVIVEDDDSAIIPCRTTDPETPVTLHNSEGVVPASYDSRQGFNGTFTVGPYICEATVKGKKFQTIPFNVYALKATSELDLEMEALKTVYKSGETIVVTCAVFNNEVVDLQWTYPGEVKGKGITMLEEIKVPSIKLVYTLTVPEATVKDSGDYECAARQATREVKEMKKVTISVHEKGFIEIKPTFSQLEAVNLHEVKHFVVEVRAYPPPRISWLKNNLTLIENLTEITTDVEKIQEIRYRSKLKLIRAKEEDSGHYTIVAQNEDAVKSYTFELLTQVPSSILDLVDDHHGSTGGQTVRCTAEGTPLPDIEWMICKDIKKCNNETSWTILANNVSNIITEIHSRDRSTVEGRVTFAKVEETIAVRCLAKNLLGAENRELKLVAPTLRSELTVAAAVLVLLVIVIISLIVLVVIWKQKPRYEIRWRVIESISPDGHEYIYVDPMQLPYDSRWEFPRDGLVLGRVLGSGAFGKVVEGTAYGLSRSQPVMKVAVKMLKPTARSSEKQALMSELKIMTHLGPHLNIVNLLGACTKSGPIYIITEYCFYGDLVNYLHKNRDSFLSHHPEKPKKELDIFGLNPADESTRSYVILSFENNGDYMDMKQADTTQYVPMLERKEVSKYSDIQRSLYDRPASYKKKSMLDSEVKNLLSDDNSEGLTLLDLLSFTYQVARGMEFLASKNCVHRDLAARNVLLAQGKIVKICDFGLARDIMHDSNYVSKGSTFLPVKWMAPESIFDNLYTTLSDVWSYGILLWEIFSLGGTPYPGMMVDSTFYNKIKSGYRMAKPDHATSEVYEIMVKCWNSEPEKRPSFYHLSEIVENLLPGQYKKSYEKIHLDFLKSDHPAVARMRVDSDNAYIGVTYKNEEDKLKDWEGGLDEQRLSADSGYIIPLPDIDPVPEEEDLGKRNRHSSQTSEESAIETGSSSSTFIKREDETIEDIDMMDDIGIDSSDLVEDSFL
Cyclin-dependent kinase 18 (Homo sapiens), sequence (Q07002 whole entry): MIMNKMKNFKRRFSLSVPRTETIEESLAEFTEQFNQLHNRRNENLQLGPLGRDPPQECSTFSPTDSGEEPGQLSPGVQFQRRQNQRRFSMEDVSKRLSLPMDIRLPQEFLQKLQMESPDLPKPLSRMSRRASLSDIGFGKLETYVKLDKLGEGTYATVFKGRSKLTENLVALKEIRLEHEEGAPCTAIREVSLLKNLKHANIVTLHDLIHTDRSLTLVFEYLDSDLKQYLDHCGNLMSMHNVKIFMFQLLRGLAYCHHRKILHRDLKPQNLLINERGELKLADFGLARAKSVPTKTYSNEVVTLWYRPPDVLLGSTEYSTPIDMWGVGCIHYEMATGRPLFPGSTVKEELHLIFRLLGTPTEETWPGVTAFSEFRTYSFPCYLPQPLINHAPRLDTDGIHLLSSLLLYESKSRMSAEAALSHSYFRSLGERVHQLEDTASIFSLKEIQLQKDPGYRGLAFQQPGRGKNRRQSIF
Platelet-derived growth factor receptor beta, sequence (P09619 whole entry, canonical isoform): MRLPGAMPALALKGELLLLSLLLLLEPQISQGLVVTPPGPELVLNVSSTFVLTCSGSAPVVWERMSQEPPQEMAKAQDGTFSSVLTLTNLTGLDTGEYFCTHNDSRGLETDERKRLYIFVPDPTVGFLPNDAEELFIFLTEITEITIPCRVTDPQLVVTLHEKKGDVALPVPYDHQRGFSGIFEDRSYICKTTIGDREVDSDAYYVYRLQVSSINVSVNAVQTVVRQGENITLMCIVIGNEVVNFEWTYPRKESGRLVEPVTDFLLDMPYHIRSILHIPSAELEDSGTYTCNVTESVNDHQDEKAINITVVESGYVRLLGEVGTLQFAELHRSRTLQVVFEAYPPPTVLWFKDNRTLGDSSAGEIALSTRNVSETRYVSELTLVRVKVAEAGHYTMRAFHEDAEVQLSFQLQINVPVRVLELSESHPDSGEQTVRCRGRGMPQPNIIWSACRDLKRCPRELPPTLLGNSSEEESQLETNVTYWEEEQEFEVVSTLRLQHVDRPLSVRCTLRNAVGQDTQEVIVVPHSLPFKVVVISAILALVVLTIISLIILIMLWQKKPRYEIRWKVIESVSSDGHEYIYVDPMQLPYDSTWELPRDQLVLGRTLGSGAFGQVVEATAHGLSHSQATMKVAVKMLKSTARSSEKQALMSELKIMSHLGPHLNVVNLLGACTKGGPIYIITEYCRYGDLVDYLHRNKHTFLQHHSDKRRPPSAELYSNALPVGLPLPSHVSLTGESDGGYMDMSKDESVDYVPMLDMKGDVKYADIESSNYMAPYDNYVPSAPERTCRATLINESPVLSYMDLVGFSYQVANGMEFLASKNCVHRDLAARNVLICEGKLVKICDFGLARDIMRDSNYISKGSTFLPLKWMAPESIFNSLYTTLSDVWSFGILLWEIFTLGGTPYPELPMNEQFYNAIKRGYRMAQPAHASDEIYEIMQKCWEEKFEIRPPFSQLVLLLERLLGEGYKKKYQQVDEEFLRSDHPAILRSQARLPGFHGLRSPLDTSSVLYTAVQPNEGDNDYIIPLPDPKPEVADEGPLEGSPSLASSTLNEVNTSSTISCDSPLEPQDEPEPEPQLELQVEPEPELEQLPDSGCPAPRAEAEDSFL
Serine/threonine-protein kinase PLK1, sequence (P53350 whole entry): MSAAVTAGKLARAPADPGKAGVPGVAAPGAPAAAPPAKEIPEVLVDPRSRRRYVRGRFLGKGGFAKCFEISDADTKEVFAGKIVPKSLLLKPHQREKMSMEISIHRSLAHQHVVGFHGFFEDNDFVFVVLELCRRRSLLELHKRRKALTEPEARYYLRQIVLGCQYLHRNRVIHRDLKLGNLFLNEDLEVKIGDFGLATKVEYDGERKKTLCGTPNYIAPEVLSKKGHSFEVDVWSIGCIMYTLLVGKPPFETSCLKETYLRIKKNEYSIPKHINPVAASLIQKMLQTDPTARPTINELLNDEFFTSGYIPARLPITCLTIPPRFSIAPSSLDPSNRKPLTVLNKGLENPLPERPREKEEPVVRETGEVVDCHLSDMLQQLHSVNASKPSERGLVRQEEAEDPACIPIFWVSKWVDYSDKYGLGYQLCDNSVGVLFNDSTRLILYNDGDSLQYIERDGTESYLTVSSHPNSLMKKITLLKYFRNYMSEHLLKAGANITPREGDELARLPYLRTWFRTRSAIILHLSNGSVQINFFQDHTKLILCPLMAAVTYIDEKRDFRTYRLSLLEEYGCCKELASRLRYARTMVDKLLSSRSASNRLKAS
Casein kinase I isoform epsilon, sequence (P49674 whole entry, looked up, canonical isoform): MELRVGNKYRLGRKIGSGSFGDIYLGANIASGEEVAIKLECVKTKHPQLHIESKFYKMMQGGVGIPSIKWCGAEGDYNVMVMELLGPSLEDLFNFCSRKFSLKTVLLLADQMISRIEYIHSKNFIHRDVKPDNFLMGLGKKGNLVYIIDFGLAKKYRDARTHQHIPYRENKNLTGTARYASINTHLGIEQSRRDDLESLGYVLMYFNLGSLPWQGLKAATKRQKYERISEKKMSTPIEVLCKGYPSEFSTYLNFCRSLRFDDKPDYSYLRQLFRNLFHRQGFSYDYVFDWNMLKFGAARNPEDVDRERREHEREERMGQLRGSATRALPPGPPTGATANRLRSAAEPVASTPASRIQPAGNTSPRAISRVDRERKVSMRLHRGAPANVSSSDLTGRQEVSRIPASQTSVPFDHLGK

SMILES: COc1cc(Nc2nc(C)cc(-c3cnn4nc(OC)ccc34)n2)cc(C(F)(F)F)c1
- % of control [1]: 87%

SMILES: Nc1cnc(N2CCc3cc(S(=O)(=O)Nc4c(F)cc(Cl)cc4F)cc(N4CCCC4=O)c32)nc1 [TP-020n]
- % of control [2]: 100%
- % of control [3]: 96%
- % of control [4]: 100%

SMILES: CC[C@@H]1[C@H](F)C(=O)N[C@@H]1COc1nccc2cc(C(N)=O)c(OC)cc12 [ZIMLOVISERTIB]
- % of inhibition [5]: -9.6%

SMILES: CCC(=O)N1CCN(c2ccc(-n3c(=O)ccc4cnc5ccc(-c6cnc7ccccc7c6)cc5c43)cc2C(F)(F)F)CC1
- % of control [6]: 63%

SMILES: CN(C)C/C=C/C(=O)Nc1ccc(C(=O)N2CCCC(Nc3ncc(Cl)c(-c4c[nH]c5ccccc45)n3)C2)cc1 (stereo not given)
- % of control [7]: 80%

SMILES: CNC(=O)Nc1ccc(-c2nc(N3CC4CCC(C3)O4)c3cnn(C4CCC5(CC4)OCCO5)c3n2)cc1
- % of control [8]: 92%

SMILES: C=CC(=O)Nc1cccc(C(=O)Nc2ccc(Nc3cc(-c4[nH]c(SC)nc4C)ccn3)cc2)c1
- % of control ([9]; at 1 µM): 96%
- % of control ([9]; at 5 µM): 99%
